Experimental data reported in US20190282600A1, “COMBINATION THERAPIES TARGETING TERT DEPENDENCY FOR CANCER THERAPY” (The Wistar Institute of Anatomy and Biology, priority 2018, published 2019).

Columns and labels:
[1] = tested on: NRAS mutant melanoma cells; assay: Cell viability, Alamar Blue assay; assay type: cell-based, Human
Procedure: (§1) FIGS. 2a to 2c show NRAS^mut melanoma cells (FIG. 2a), BRAF-V600E/NRAS mutant cells derived from melanoma patients resistant to BRAF/MEK inhibitors (FIG. 2b), or non-transformed melanocytes and fibroblasts (FIG. 2c) were treated with 6-thio-dG for 7 days. Cell viability was measured by Alamar Blue assay and calculated relative to DMSO-treated cells. […] Cell death was assessed by PSVUe staining. Percent of apoptotic cells is shown. […] Mean TRF length expressed as kilobase pairs is indicated at the bottom. […] FIG. 2g provides a bar graph showing that DNA damage was assessed by γH2AX staining. Data represent average from three independent experiments ±SEM. *p<0.05; **p<0.01; ***p<0.005 in unpaired Student's t-test. […] Tumor volume was measured and average tumor volume (n=4) ±SEM was plotted vs. time.
(§2) Cells were seeded in 96-well plates and treated with drugs. After 6 days, cell viability was assessed following 6h incubation with […] Alamar Blue (ThermoFisherScientific, Philadelphia, Pa.) by measuring fluorescence using an EnVision Xcite Multilabel plate reader (Perkin Elmer, Waltham, Mass.). Cell death was determined by flow cytometry using PSVue-643 (Molecular Targeting Technologies) or Annexin V (640919, Biolegend, San Diego, Calif.) and Propidium Iodide (Sigma) staining. Samples were analyzed using a BD LSRII flow cytometer (BD Biosciences, San Jose, Calif.).

KRAS mutant A549 cells = assay: Cell death by Annexin V/PI flow cytometry; assay type: cell-based; conditions: 1 μM 6-thio-dG, 5 μM Gam
Procedure: (§3) FIGS. 5a to 5e provide bar graphs showing that combination treatment with 6-Thio-dG and Gamitrinib (Gam) triggers death selectively in NRAS mutant tumor cells. NRAS-WT/BRAF-WT melanoma cells (FIG. 5a), NRAS-WT/BRAF-mut melanoma cells (FIG. 5b), NRAS mutant neuroblastoma cells (FIG. 5c), NRAS-WT/KRAS-mutant colon cancer cells (FIG. 5d), and NRAS-WT/KRAS-mutant lung cancer cells were treated with 1 μM 6-thio-dG for 5 days (FIG. 5e). At day 5, culture medium was replaced and cells treated with 1 μM 6-thio-dG plus 5 μM Gam for two more days. Cells were stained with Annexin V and PI and percent cell death was determined by FACS. Data represent average of three independent experiments +/−SEM; p values were calculated using un-paired Student's t-test; *p<0.05; **p<0.001.
as §2

KRAS mutant HCT116 cells = assay: Cell death by Annexin V/PI flow cytometry; assay type: cell-based; conditions: 1 μM 6-thio-dG, 5 μM Gam
Procedure: as §3, §2

[2] = tested on: NRAS mutant SKNAS neuroblastoma cells; assay: Cell death by Annexin V/PI flow cytometry; assay type: cell-based; conditions: 1 μM 6-thio-dG, 5 μM Gam, single agents or in combination
Procedure: as §3, §2

[3] = tested on: NRAS-WT/BRAF-WT melanoma cells; assay: Cell death by Annexin V/PI flow cytometry; assay type: cell-based, Human; conditions: 1 μM 6-thio-dG, 5 μM Gam, single agents or in combination
Procedure: as §3, §2

[4] = tested on: detoxifying enzymes SOD2, GPX1 and UCP2; assay: mRNA levels of antioxidant enzymes by qRT-PCR; assay type: cell-based, Human; conditions: NRAS mutant melanoma cells, 1 μM 6-thio-dG for 7 days
Procedure: FIGS. 3a to 3g provides graphs showing that telomere dysfunction enhances oxidative stress leading to upregulation of an antioxidant program. […] Mitochondrial superoxide production was measured by MitoSox Red fluorescence (FIGS. 3c, and 3d) and expressed as fluorescence relative to vector or DMSO controls. […] FIG. 3f provides a bar graph showing that SOD2 was silenced using shRNA. Transduced M93-047 cells were treated with DMSO or 1 μM of 6-thio-dG and cell death was assessed by Annexin V/PI straining. As presented in FIG. 3g, M93-047 cells were transduced with a SOD2 lentiviral construct or empty vector control (pLX304). Transduced cells were treated with increasing doses (1, 2.5 and 5 μM) of 6-thio-dG for 7 days and cell death was assessed. Data represent average from three independent experiments ±SEM. *p<0.05; **p<0.01; ***p<0.005 in unpaired Student's t-test.
Total RNA (1 μg) was reverse transcribed using Maxima First-Strand cDNA synthesis kit (Thermo Scientific, Waltham, Mass.). Fast SYBR Green Master Mix (Applied Biosystems, Waltham, Mass.) was used with 100 ng cDNA template and 250 nM primers for the evaluation of target gene expression. Amplification was performed in triplicate using ABI PRISM 7500 Fast RT PCR System (Applied Biosystems, Waltham, Mass.) and expression of mRNA was assessed using the […].

[5] = tested on: NRAS mutant melanoma cells; assay: Reactive oxygen species by flow cytometry (H2DCFDA, MitoSox Red); assay type: cell-based, Human; conditions: 1 μM 6-thio-dG for 7 days
Procedure: as §1, with “staining.” for “staining. Data represent average from three independent experiments ±SEM. *p<0.05; **p<0.01; ***p<0.005 in unpaired Student's t-test.”
FIGS. 3a to 3g provides graphs showing that telomere dysfunction enhances oxidative stress leading to upregulation of an antioxidant program. […] Mitochondrial superoxide production was measured by MitoSox Red fluorescence (FIGS. 3c, and 3d) and expressed as fluorescence relative to vector or DMSO controls. […] Transduced M93-047 cells were treated with DMSO or 1 μM of 6-thio-dG and cell death was assessed by Annexin V/PI straining. […] Transduced cells were treated with increasing doses (1, 2.5 and 5 μM) of 6-thio-dG for 7 days and cell death was assessed. […]
General or mitochondrial specific ROS were measured by flow cytometry H2DCFDA or MitoSoxRed (Invitrogen, Waltham, Mass.) following manufacturer's specifications.

[6] = mice; cited from earlier work

Q: Which cell viability ([1]; 6-thio-dG for 7 days, relative to DMSO) does the source give for `Nc1nc2c(ncn2[C@H]2C[C@H](O)[C@@H](CO)O2)c(=S)[nH]1` [6-thio-dG, 6-thio-2′-deoxyguanosine] here?
A: impaired the viability

Q: And the cell viability ([1]; cells driven by secondary mutations in NRAS from patients with acquired resistance to BRAF and MEK inhibitors, 7 days)?
A: impaired the viability

Q: And the cell death (KRAS mutant A549 cells)?
A: did not induce substantial death

Q: What about the cell death (KRAS mutant HCT116 cells) of the same compound?
A: did not induce substantial death

Q: And the cell death [2]?
A: triggered significant death

Q: What about the cell death [3] of the same compound?
A: did not induce cell death

Q: What about the “GPX1 mRNA levels” value [4] of the same compound?
A: upregulation

Q: What about the “SOD2 mRNA levels” value [4] of the same compound?
A: upregulation

Q: What about the “UCP2 mRNA levels” value [4] of the same compound?
A: upregulation

Q: And the “ROS levels (H2DCFDA)” value [5]?
A: increased levels

Q: And the “mitochondrial ROS levels (MitoSox Red)” value [5]?
A: increased mitochondrial ROS levels

Q: And the “effect on alanine aminotransferase (ALT)” value [6]?
A: no significant effects

Q: What about the “effect on aspartate aminotransferase (AST)” value [6] of the same compound?
A: no significant effects

Q: And the “effect on creatinine levels” value [6]?
A: no significant effects

Q: What about the “effect on red blood cells” value [6] of the same compound?
A: no significant effects

Q: And the “effect on white blood cells” value [6]?
A: no significant effects
